Test results from patent US20140031278A1, “Novel Glucagon Analogues” (NOVO NORDISK A/S, priority 2011, published 2014).
*1 amine or outer side, *2 acyl side, *3 side chain or, on linkers, in order; H or OH if unused. Where a SMILES comes first, the peptide text is derived from it. Side-chain parts run from the residue outwards. γGlu = O=C(O)[C@H](CCC(=O)[*:2])N[*:1]

Biological target: T1, glucagon receptor (Homo sapiens, UniProt P47871)
T1 construct: expressed in transfected cells
Assay: Assay (I) Glucagon activity (cAMP biosensor, FLIPR)
Assay type: cell-based
Conditions: HEK-293 cells with cloned glucagon receptor and cAMP biosensor; end point after 6 minutes
Experimental: The glucagon receptor was cloned into HEK-293 cells having a membrane bound cAMP biosensor (ACTOne™). The cells (14000 per well) were incubated (37° C., 5% CO2) overnight in 384-well plates. Next day the cells were loaded with a calcium responsive dye that only distributed into the cytoplasm. Probenecid, an inhibitor of the organic anion transporter, was added to prevent the dye from leaving the cell. A PDE inhibitor was added to prevent formatted cAMP from being degraded, The plates were placed into a […] and the glucagon analogues were added. End point data were collected after 6 minutes. An increase in intracellular cAMP was proportional to an increased in calcium concentrations in the cytoplasm. When calcium was bound the dry a fluorescence signal was generated. EC50-values were calculated in Prism5.

T1 sequence (P47871 26-477): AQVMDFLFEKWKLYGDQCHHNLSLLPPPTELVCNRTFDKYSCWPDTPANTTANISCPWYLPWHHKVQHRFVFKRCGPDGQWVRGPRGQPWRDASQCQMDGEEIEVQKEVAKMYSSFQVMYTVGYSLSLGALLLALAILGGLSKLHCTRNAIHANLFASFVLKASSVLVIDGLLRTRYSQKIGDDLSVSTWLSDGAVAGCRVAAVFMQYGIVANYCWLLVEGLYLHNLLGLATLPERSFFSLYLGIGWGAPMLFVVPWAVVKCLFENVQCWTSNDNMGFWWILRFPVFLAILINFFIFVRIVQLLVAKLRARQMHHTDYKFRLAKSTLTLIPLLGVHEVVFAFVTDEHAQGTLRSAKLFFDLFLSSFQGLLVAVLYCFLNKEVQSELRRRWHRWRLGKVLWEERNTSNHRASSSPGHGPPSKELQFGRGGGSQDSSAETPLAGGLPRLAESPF

| Structure (SMILES) | EC50 |
| --- | --- |
| CC[C@H](C)[C@H](NC(=O)[C@H](CC(=O)O)NC(=O)[C@H](CC(C)C)NC(=O)[C@H](Cc1ccc(O)cc1)NC(=O)[C@H](CCCNC(=N)N)NC(=O)[C@H](CO)NC(=O)[C@H](Cc1ccc(O)cc1)NC(=O)[C@H](CC(=O)O)NC(=O)[C@H](CO)NC(=O)[C@@H](NC(=O)[C@H](Cc1ccccc1)NC(=O)[C@@H](NC(=O)CNC(=O)[C@H](Cc1c[nH]cn1)NC(=O)[C@H](CO)NC(=O)[C@@H](N)Cc1c[nH]cn1)[C@@H](C)O)[C@@H](C)O)C(=O)N[C@@H](CCCNC(=N)N)C(=O)N[C@@H](CCCNC(=N)N)C(=O)N[C@@H](C)C(=O)N[C@@H](C)C(=O)N[C@@H](CC(=O)O)C(=O)N[C@@H](Cc1ccccc1)C(=O)N[C@H](C(=O)N[C@@H](CCCCNC(=O)CC[C@H](NC(=O)CC[C@H](NC(=O)CC[C@H](NC(=O)CC[C@H](N)C(=O)O)C(=O)O)C(=O)O)C(=O)O)C(=O)N[C@@H](Cc1c[nH]c2ccccc12)C(=O)N[C@@H](CC(C)C)C(=O)N[C@@H](CC(C)C)C(=O)N[C@@H](CO)C(=O)N[C@H](C(=O)O)[C@@H](C)O)C(C)C [Example 8, N^ε24-[(4S)-4-[[(4S)-4-[[(4S)-4-[[(4S)-4-amino-4-carboxybutanoyl]amino]-4-carboxybutanoyl]amino]-4-carboxybutanoyl]amino]-4-carboxybutanoyl]-[His3,Arg12,Ile16,Ala20,Lys24,Leu27,Ser28]-Glucagon] (H-HSHGTFTSDYSRYLDIRRAADFVK([γGlu-γGlu-γGlu-γGlu])WLLST-OH) | 0.0269 nM |
| CC(C)C[C@H](NC(=O)[C@H](Cc1c[nH]c2ccccc12)NC(=O)[C@H](CCCCNC(=O)CC[C@H](NC(=O)CC[C@H](NC(=O)CC[C@H](NC(=O)CC[C@H](N)C(=O)O)C(=O)O)C(=O)O)C(=O)O)NC(=O)[C@@H](NC(=O)[C@H](Cc1ccccc1)NC(=O)[C@H](CC(=O)O)NC(=O)[C@H](C)NC(=O)[C@H](C)NC(=O)[C@H](CCCNC(=N)N)NC(=O)[C@H](CCCNC(=N)N)NC(=O)[C@@H](NC(=O)[C@H](CC(=O)O)NC(=O)[C@H](CC(C)C)NC(=O)[C@H](Cc1ccc(O)cc1)NC(=O)[C@H](CCCNC(=N)N)NC(=O)[C@H](CO)NC(=O)[C@H](Cc1ccc(O)cc1)NC(=O)[C@H](CC(=O)O)NC(=O)[C@H](CO)NC(=O)[C@@H](NC(=O)[C@H](Cc1ccccc1)NC(=O)[C@@H](NC(=O)CNC(=O)[C@H](Cc1c[nH]cn1)NC(=O)[C@H](CO)NC(=O)[C@@H](N)Cc1c[nH]cn1)[C@@H](C)O)[C@@H](C)O)[C@@H](C)O)C(C)C)C(=O)N[C@@H](CC(C)C)C(=O)N[C@@H](CO)C(=O)N[C@H](C(=O)O)[C@@H](C)O [Example 9, N^ε24-[(4S)-4-[[(4S)-4-[[(4S)-4-[[(4S)-4-amino-4-carboxybutanoyl]amino]-4-carboxybutanoyl]amino]-4-carboxybutanoyl]amino]-4-carboxybutanoyl]-[His3,Arg12,Thr16,Ala20,Lys24,Leu27,Ser28]-Glucagon] (H-HSHGTFTSDYSRYLDTRRAADFVK([γGlu-γGlu-γGlu-γGlu])WLLST-OH) | 0.037 nM |
| CC(=O)N[C@@H](CCC(=O)N[C@@H](CCC(=O)N[C@@H](CCC(=O)N[C@@H](CCC(=O)NCCCC[C@H](NC(=O)[C@@H](NC(=O)[C@H](Cc1ccccc1)NC(=O)[C@H](CC(=O)O)NC(=O)[C@H](C)NC(=O)[C@H](C)NC(=O)[C@H](CCCNC(=N)N)NC(=O)[C@H](CCCNC(=N)N)NC(=O)[C@H](Cc1ccccc1)NC(=O)[C@H](CC(=O)O)NC(=O)[C@H](CC(C)C)NC(=O)[C@H](Cc1ccc(O)cc1)NC(=O)[C@H](CCCCN)NC(=O)[C@H](CO)NC(=O)[C@H](Cc1ccc(O)cc1)NC(=O)[C@H](CC(=O)O)NC(=O)[C@H](CO)NC(=O)[C@@H](NC(=O)[C@H](Cc1ccccc1)NC(=O)[C@@H](NC(=O)CNC(=O)[C@H](Cc1c[nH]cn1)NC(=O)[C@H](CO)NC(=O)[C@@H](N)Cc1c[nH]cn1)[C@@H](C)O)[C@@H](C)O)C(C)C)C(=O)N[C@@H](Cc1c[nH]c2ccccc12)C(=O)N[C@@H](CC(C)C)C(=O)N[C@@H](CC(C)C)C(=O)N[C@@H](CO)C(=O)N[C@H](C(=O)O)[C@@H](C)O)C(=O)O)C(=O)O)C(=O)O)C(=O)O [Example 12, N^ε24-[(4S)-4-[[(4S)-4-[[(4S)-4-[[(4S)-4-acetamido-4-carboxybutanoyl]amino]-4-carboxybutanoyl]amino]-4-carboxybutanoyl]amino]-4-carboxybutanoyl]-[His3,Phe16,Ala20,Lys24,Leu27,Ser28]-Glucagon] (H-HSHGTFTSDYSKYLDFRRAADFVK([γGlu-γGlu-γGlu-γGlu-Ac])WLLST-OH) | 0.0103 nM |

The remaining lines, values ahead:

| EC50 | Structure (SMILES) |
| --- | --- |
| 0.0167 nM | CC(=O)N[C@@H](CCC(=O)N[C@@H](CCC(=O)N[C@@H](CCC(=O)N[C@@H](CCC(=O)NCCCC[C@H](NC(=O)[C@@H](NC(=O)[C@H](Cc1ccccc1)NC(=O)[C@H](CC(=O)O)NC(=O)[C@H](C)NC(=O)[C@H](C)NC(=O)[C@H](CCCNC(=N)N)NC(=O)[C@H](CCCNC(=N)N)NC(=O)[C@@H](NC(=O)[C@H](CC(=O)O)NC(=O)[C@H](CC(C)C)NC(=O)[C@H](Cc1ccc(O)cc1)NC(=O)[C@H](CCCCN)NC(=O)[C@H](CO)NC(=O)[C@H](Cc1ccc(O)cc1)NC(=O)[C@H](CC(=O)O)NC(=O)[C@H](CO)NC(=O)[C@@H](NC(=O)[C@H](Cc1ccccc1)NC(=O)[C@@H](NC(=O)CNC(=O)[C@H](Cc1c[nH]cn1)NC(=O)[C@H](CO)NC(=O)[C@@H](N)Cc1c[nH]cn1)[C@@H](C)O)[C@@H](C)O)C(C)C)C(C)C)C(=O)N[C@@H](Cc1c[nH]c2ccccc12)C(=O)N[C@@H](CC(C)C)C(=O)N[C@@H](CC(C)C)C(=O)N[C@@H](CO)C(=O)N[C@H](C(=O)O)[C@@H](C)O)C(=O)O)C(=O)O)C(=O)O)C(=O)O [Example 10, N^ε24-[(4S)-4-[[(4S)-4-[[(4S)-4-[[(4S)-4-acetamido-4-carboxybutanoyl]amino]-4-carboxybutanoyl]amino]-4-carboxybutanoyl]amino]-4-carboxybutanoyl]-[His3,Val16,Ala20,Lys24,Leu27,Ser28]-Glucagon] (H-HSHGTFTSDYSKYLDVRRAADFVK([γGlu-γGlu-γGlu-γGlu-Ac])WLLST-OH) |
| 0.0124 nM | CC[C@H](C)[C@H](NC(=O)[C@H](CC(=O)O)NC(=O)[C@H](CC(C)C)NC(=O)[C@H](Cc1ccc(O)cc1)NC(=O)[C@H](CCCCN)NC(=O)[C@H](CO)NC(=O)[C@H](Cc1ccc(O)cc1)NC(=O)[C@H](CC(=O)O)NC(=O)[C@H](CO)NC(=O)[C@@H](NC(=O)[C@H](Cc1ccccc1)NC(=O)[C@@H](NC(=O)CNC(=O)[C@H](Cc1c[nH]cn1)NC(=O)[C@H](CO)NC(=O)[C@@H](N)Cc1c[nH]cn1)[C@@H](C)O)[C@@H](C)O)C(=O)N[C@@H](CCCNC(=N)N)C(=O)N[C@@H](CCCNC(=N)N)C(=O)N[C@@H](C)C(=O)N[C@@H](C)C(=O)N[C@@H](CC(=O)O)C(=O)N[C@@H](Cc1ccccc1)C(=O)N[C@H](C(=O)N[C@@H](CCCCNC(=O)CC[C@H](NC(=O)CC[C@H](NC(=O)CC[C@H](NC(=O)CC[C@H](NC(C)=O)C(=O)O)C(=O)O)C(=O)O)C(=O)O)C(=O)N[C@@H](Cc1c[nH]c2ccccc12)C(=O)N[C@@H](CC(C)C)C(=O)N[C@@H](CC(C)C)C(=O)N[C@@H](CO)C(=O)N[C@H](C(=O)O)[C@@H](C)O)C(C)C [Example 11] (H-HSHGTFTSDYSKYLDIRRAADFVK([γGlu-γGlu-γGlu-γGlu-Ac])WLLST-OH) |
| 0.0065 nM | CC(=O)N[C@@H](CCC(=O)N[C@@H](CCC(=O)N[C@@H](CCC(=O)N[C@@H](CCC(=O)NCCCC[C@H](NC(=O)[C@@H](NC(=O)[C@H](Cc1ccccc1)NC(=O)[C@H](CC(=O)O)NC(=O)[C@H](CCC(N)=O)NC(=O)[C@H](C)NC(=O)[C@H](CCCNC(=N)N)NC(=O)[C@H](CCCNC(=N)N)NC(=O)[C@@H](NC(=O)[C@H](CC(=O)O)NC(=O)[C@H](CC(C)C)NC(=O)[C@H](Cc1ccc(O)cc1)NC(=O)[C@H](CCCCN)NC(=O)[C@H](CO)NC(=O)[C@H](Cc1ccc(O)cc1)NC(=O)[C@H](CC(=O)O)NC(=O)[C@H](CO)NC(=O)[C@@H](NC(=O)[C@H](Cc1ccccc1)NC(=O)[C@@H](NC(=O)CNC(=O)[C@H](CCC(N)=O)NC(=O)[C@H](CO)NC(=O)[C@@H](N)Cc1c[nH]cn1)[C@@H](C)O)[C@@H](C)O)C(C)C)C(C)C)C(=O)N[C@@H](Cc1c[nH]c2ccccc12)C(=O)N[C@@H](CC(C)C)C(=O)N[C@@H](CC(C)C)C(=O)N[C@@H](CC(N)=O)C(=O)N[C@H](C(=O)O)[C@@H](C)O)C(=O)O)C(=O)O)C(=O)O)C(=O)O [Example 16, N^ε24-[(4S)-4-[[(4S)-4-[[(4S)-4-[[(4S)-4-acetamido-4-carboxybutanoyl]amino]-4-carboxybutanoyl]amino]-4-carboxybutanoyl]amino]-4-carboxybutanoyl]-[Val16,Lys24,Leu27]-Glucagon] |
| 0.0165 nM | CC(=O)N[C@@H](CCC(=O)N[C@@H](CCC(=O)N[C@@H](CCC(=O)N[C@@H](CCC(=O)NCCCC[C@H](NC(=O)[C@@H](NC(=O)[C@H](Cc1ccccc1)NC(=O)[C@H](CC(=O)O)NC(=O)[C@H](CCC(N)=O)NC(=O)[C@H](C)NC(=O)[C@H](CCCNC(=N)N)NC(=O)[C@H](CCCNC(=N)N)NC(=O)[C@H](CO)NC(=O)[C@H](CCC(=O)O)NC(=O)[C@H](CC(C)C)NC(=O)[C@H](Cc1ccc(O)cc1)NC(=O)[C@H](CCCCN)NC(=O)[C@H](CO)NC(=O)[C@H](Cc1ccc(O)cc1)NC(=O)[C@H](CC(=O)O)NC(=O)[C@H](CO)NC(=O)[C@@H](NC(=O)[C@H](Cc1ccccc1)NC(=O)[C@@H](NC(=O)CNC(=O)[C@H](CCC(N)=O)NC(=O)[C@H](CO)NC(=O)[C@@H](N)Cc1c[nH]cn1)[C@@H](C)O)[C@@H](C)O)C(C)C)C(=O)N[C@@H](Cc1c[nH]c2ccccc12)C(=O)N[C@@H](CC(C)C)C(=O)N[C@@H](CC(C)C)C(=O)N[C@@H](CC(N)=O)C(=O)N[C@H](C(=O)O)[C@@H](C)O)C(=O)O)C(=O)O)C(=O)O)C(=O)O [Example 17, N^ε24-[(4S)-4-[[(4S)-4-[[(4S)-4-[[(4S)-4-acetamido-4-carboxybutanoyl]amino]-4-carboxybutanoyl]amino]-4-carboxybutanoyl]amino]-4-carboxybutanoyl]-[Glu15,Lys24,Leu27]-Glucagon] |
